Test results reported in ChEMBL document CHEMBL1201862, “PubChem BioAssay data set” (2004).
Calls of active or inactive are those of the source.

Key:
cells [1] = format: functional, cell-based
[2] = molecular target: Peroxisome proliferator-activated receptor gamma/Nuclear receptor coactivator 3 (Homo sapiens, UniProt P37231); format: functional;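 further: agonist potency for raising coactivator recruitment to the receptor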
[3] = molecular target: Peroxisome proliferator-activated receptor gamma/Nuclear receptor coactivator 1 (Homo sapiens, UniProt P37231); format: functional;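 further: agonist potency as compounds enhance coactivator SRC-1 recruitment to PPARgamma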
cells [4] = format: functional, cell-based; remark: listed apart in the source
[5] = molecular target: Peroxisome proliferator-activated receptor gamma/Nuclear receptor coactivator 2 (Homo sapiens, UniProt P37231); format: functional;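 further: agonist potency for raising coactivator recruitment to the receptor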
Estrogen receptor beta = Estrogen receptor beta (Homo sapiens, UniProt Q92731); experiment: ERβ–SRC-3 coactivator interaction inhibitors, confirmation, orthogonal assay, biochemical, ELISA, streptavidin-HRP readout (AID 1060)
Chain of Estrogen receptor beta (Q92731 whole entry): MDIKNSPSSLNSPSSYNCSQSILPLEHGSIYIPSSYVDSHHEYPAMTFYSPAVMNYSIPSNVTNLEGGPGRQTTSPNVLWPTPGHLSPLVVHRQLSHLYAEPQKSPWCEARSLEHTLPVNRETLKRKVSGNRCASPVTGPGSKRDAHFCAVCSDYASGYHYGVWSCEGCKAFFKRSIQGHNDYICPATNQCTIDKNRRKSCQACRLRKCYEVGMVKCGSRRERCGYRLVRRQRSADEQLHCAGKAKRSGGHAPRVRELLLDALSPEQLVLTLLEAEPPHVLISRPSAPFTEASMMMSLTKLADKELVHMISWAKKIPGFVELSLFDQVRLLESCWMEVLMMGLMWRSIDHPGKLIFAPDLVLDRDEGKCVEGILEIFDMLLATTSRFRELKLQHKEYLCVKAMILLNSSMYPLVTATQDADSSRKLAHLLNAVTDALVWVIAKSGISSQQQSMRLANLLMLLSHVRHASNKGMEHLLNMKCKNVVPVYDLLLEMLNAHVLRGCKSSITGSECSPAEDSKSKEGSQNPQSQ

Vero [6] = experiment: cells; format: functional; settings: Chlorocebus sabaeus
[7] = molecular target: Heat shock protein HSP 90-alpha (Homo sapiens, UniProt P07900); format: functional, organism-based
[8] = molecular target: DNA dC->dU-editing enzyme APOBEC-3G (Homo sapiens, UniProt Q9HC16); experiment: Dose Response confirmation of small molecule APOBEC3G DNA Deaminase Inhibitors via a fluorescence-based single-stranded DNA deaminase assay. [Related pubchem assays (depositor defined):AID493012, AID493028]; format: functional
Chain of DNA dC->dU-editing enzyme APOBEC-3G (Q9HC16 whole entry): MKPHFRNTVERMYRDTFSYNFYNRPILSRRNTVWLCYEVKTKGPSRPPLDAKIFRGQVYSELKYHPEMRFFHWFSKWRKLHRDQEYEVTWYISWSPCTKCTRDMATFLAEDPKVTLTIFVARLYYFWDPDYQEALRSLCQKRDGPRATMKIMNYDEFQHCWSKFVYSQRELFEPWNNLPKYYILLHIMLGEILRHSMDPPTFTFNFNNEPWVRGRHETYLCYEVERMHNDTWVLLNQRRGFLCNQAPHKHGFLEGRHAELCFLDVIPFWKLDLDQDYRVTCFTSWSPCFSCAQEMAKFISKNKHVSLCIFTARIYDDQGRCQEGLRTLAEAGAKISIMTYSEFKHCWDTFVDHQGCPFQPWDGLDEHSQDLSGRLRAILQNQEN

Coagulation factor XII = molecular target: T1, Coagulation factor XII (Homo sapiens, UniProt P00748); format: functional;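 further: activated factor XIIa alpha cleaving a fluorogenic AMC peptide substrate; inhibitor potency from loss of enzyme activity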
T1 sequence (P00748 whole entry): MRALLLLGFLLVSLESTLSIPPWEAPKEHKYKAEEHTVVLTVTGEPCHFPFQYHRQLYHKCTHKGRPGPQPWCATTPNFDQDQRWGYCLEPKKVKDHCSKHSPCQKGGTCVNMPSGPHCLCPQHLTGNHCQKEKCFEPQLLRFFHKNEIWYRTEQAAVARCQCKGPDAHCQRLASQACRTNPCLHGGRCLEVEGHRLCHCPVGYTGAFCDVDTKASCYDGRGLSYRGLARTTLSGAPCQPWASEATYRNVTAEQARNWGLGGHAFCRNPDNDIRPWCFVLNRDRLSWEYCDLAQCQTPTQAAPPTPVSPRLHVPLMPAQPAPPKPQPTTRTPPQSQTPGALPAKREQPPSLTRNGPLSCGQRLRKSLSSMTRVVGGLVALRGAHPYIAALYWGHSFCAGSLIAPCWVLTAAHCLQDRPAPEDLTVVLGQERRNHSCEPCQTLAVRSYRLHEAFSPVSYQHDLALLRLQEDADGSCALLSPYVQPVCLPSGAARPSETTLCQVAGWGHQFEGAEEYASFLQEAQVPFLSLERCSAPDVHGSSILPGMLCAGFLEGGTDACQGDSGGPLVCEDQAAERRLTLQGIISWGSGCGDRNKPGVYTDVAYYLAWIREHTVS

[9] = molecular target: T2, Heat shock factor protein 1 (Mus musculus, UniProt P38532); experiment: inhibition of MG132-induced HSE-luciferase signal, confirmation, cell-based, NIH3T3, luminescence, dose retest (AID 2382); format: functional;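 further: NIH3T3 fibroblasts with HSF1-driven luciferase reporter stressed by proteasome inhibitor MG132; luminescence from HSF1-driven luciferase expression after 8 hours of MG132 stress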
T2 sequence (P38532 whole entry): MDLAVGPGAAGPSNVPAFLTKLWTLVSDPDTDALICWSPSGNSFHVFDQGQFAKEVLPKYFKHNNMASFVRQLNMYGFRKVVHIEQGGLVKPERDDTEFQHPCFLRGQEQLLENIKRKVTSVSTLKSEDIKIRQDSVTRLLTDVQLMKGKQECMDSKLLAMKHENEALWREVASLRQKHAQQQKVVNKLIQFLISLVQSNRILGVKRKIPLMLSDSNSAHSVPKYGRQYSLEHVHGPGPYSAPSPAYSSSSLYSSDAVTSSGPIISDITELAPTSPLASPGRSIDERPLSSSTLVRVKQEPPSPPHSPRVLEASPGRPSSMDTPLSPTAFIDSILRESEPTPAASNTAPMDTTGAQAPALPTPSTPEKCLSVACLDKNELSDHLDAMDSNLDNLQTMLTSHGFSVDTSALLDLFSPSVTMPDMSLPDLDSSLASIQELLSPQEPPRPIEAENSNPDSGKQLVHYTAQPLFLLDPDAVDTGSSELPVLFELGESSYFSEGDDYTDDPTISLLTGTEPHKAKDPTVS

[10] = molecular target: Glucose-6-phosphate 1-dehydrogenase (Homo sapiens, UniProt P11413); experiment: human G6PD enzyme inhibitors, dose response, selectivity assay for P. falciparum G6PD inhibitor project, biochemical, fluorescence (AID 504792); format: functional
Chain of Glucose-6-phosphate 1-dehydrogenase (P11413 whole entry): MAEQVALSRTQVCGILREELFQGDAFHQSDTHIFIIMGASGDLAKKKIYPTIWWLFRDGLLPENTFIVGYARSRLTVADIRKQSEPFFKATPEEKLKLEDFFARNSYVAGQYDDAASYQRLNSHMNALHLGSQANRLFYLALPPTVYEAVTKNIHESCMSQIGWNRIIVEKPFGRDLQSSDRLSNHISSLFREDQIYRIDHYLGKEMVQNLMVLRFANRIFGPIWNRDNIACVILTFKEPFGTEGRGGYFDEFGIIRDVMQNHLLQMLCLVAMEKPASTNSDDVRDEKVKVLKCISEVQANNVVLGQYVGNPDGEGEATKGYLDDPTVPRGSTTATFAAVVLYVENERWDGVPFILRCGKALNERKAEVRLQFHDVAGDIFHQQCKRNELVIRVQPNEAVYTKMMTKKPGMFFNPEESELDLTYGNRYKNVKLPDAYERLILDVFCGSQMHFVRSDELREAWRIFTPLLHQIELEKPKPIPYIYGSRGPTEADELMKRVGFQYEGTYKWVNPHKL

[11] = molecular target: Voltage-gated N-type calcium channel alpha-1B subunit/Amyloid beta A4 precursor protein-binding family A member 1 (Homo sapiens, UniProt Q00975+Q02410); experiment: disruptors of Mint-PDZ/N-type channel peptide interaction – biochemical, HTRF, set 2, SAR follow-up (AID 434980); format: functional
Chain of Voltage-gated N-type calcium channel alpha-1B subunit/Amyloid beta A4 precursor protein-binding family A member 1 (Q00975 whole entry): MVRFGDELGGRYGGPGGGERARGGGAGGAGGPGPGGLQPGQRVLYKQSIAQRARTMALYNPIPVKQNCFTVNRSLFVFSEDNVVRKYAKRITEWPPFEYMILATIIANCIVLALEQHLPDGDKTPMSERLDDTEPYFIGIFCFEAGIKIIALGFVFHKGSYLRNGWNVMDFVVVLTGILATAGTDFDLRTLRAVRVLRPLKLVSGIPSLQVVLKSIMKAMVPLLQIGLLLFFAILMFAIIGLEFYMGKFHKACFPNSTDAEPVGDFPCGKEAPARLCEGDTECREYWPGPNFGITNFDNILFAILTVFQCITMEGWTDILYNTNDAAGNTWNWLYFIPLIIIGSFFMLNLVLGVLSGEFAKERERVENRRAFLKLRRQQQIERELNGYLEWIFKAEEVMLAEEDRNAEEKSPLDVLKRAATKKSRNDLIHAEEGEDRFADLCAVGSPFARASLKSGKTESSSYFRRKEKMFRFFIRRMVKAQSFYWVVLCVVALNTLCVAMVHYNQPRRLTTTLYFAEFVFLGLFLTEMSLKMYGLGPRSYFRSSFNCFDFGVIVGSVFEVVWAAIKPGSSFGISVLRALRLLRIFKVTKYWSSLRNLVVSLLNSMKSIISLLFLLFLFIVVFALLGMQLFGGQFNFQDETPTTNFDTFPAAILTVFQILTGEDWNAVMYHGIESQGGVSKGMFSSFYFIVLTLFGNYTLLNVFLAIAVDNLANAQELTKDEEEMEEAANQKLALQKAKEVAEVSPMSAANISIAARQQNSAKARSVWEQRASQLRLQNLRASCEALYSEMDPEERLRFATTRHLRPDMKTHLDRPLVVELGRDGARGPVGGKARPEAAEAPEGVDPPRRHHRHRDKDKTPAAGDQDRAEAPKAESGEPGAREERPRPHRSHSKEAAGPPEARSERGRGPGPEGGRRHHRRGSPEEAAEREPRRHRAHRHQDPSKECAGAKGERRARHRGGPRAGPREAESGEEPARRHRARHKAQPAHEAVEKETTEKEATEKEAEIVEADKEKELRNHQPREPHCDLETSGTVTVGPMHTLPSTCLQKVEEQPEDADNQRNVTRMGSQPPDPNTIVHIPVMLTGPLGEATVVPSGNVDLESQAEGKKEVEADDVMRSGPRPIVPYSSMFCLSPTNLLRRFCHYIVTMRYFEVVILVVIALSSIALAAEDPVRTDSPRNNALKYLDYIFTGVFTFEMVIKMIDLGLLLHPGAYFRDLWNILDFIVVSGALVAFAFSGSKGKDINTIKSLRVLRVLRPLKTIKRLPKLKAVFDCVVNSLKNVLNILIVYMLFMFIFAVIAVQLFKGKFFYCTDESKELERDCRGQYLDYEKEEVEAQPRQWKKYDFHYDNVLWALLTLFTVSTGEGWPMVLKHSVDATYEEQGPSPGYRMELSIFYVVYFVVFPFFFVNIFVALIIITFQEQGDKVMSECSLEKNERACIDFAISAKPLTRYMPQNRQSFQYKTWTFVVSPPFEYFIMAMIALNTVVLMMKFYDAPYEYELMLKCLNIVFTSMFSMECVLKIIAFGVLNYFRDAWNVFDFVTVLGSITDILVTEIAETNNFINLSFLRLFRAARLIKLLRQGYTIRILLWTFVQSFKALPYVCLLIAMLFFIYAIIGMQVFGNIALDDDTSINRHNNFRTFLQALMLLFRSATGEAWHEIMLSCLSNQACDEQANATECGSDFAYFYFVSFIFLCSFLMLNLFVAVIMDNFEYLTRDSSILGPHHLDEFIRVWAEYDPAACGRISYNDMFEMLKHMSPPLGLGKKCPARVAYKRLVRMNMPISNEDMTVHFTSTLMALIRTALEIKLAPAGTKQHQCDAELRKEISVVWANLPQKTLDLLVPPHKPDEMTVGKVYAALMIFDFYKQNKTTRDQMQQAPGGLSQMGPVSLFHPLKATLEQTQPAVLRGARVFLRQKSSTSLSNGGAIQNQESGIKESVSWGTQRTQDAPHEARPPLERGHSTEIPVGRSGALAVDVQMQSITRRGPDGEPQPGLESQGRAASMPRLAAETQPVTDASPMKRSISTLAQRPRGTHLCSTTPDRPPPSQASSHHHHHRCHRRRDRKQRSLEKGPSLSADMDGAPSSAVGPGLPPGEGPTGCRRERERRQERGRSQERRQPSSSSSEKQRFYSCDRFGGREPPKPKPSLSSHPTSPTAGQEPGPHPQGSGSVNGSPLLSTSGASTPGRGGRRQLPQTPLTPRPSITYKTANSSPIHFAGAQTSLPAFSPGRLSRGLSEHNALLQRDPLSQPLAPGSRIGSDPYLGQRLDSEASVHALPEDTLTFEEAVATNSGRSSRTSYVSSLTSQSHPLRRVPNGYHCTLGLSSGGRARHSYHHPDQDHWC
Chain of Voltage-gated N-type calcium channel alpha-1B subunit/Amyloid beta A4 precursor protein-binding family A member 1 (Q02410 whole entry): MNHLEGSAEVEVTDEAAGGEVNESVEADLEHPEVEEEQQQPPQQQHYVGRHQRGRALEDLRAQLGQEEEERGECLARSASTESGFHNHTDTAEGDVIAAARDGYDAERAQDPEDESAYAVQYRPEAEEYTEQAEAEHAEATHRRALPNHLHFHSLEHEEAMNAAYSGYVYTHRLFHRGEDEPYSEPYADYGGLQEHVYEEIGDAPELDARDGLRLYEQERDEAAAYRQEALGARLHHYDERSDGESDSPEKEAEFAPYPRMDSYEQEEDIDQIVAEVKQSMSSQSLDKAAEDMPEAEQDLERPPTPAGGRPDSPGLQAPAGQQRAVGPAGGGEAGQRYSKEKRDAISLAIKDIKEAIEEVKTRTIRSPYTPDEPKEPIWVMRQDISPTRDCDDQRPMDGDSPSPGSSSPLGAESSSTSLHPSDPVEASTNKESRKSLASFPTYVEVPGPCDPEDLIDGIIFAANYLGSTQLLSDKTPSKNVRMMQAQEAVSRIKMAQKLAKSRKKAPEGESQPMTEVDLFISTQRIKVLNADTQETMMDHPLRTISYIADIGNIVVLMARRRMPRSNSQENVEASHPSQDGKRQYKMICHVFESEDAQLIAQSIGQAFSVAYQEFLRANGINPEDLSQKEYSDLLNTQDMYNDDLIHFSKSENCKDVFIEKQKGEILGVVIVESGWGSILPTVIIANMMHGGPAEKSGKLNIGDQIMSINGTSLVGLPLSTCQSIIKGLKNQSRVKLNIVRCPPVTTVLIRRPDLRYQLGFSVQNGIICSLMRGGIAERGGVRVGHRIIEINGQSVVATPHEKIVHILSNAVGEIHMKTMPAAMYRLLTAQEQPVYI

[12] = molecular target: Voltage-dependent T-type calcium channel subunit alpha-1H (Homo sapiens, UniProt O95180); format: functional;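 further: channel activity triggered by adding a high calcium stimulation buffer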
Vero [13] = experiment: cells; format: functional, cell-based; settings: Chlorocebus sabaeus
Cytochrome P450 2C9 = Cytochrome P450 2C9 (Homo sapiens, UniProt P11712)
Chain of Cytochrome P450 2C9 (P11712 whole entry): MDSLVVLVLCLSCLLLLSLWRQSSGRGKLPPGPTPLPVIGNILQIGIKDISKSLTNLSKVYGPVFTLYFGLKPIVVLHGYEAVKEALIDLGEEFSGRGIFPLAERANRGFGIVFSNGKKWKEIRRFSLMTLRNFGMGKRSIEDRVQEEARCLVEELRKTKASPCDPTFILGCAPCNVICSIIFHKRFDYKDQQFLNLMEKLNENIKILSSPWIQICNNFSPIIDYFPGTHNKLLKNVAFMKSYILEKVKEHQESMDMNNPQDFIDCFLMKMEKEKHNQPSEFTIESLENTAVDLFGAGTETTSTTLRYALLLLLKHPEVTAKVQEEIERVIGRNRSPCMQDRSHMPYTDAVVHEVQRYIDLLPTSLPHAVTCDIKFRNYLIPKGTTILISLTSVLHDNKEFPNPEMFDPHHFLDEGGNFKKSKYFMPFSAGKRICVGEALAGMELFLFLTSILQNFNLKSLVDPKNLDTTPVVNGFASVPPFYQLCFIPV

[14] = molecular target: T3, Replicative DNA helicase DnaB (Mycobacterium tuberculosis, UniProt P9WMR3); experiment: DnaB intein splicing inhibitors, dose response, biochemical, cell-free fluorescence (AID 449749); format: functional
T3 sequence (P9WMR3 whole entry): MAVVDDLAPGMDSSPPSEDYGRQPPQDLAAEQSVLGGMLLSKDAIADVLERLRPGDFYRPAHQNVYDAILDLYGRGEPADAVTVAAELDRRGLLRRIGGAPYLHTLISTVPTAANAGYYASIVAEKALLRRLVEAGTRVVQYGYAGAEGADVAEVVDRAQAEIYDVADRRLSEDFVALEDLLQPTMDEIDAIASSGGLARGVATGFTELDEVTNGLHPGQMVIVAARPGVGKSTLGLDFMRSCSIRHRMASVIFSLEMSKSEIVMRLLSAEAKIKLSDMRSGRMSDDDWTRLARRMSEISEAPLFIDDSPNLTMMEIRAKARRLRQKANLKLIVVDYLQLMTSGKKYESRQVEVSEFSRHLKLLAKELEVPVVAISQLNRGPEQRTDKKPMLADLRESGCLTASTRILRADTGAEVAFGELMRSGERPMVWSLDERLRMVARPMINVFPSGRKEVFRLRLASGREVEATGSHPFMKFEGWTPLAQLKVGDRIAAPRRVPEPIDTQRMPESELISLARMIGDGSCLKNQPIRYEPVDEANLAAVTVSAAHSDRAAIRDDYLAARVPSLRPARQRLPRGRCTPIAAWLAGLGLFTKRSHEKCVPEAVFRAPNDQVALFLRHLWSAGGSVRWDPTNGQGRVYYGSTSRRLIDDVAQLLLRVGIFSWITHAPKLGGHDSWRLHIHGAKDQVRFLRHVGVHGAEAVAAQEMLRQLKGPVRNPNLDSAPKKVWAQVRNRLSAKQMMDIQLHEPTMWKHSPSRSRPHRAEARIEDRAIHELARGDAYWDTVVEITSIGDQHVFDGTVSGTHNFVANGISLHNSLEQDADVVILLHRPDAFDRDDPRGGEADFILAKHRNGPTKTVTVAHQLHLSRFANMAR

HEK293 [15] = experiment: cells; settings: Homo sapiens
[16] = molecular target: T4, Corticotropin-releasing factor receptor 2/Corticotropin-releasing factor-binding protein (Homo sapiens, UniProt P24387+Q13324); experiment: Dose Response confirmation of uHTS hits for small molecule antagonists of the CRF-binding protein and CRF-R2 receptor complex.; format: functional; settings: read-out: IC50_Mean
T4 sequence (Q13324 whole entry): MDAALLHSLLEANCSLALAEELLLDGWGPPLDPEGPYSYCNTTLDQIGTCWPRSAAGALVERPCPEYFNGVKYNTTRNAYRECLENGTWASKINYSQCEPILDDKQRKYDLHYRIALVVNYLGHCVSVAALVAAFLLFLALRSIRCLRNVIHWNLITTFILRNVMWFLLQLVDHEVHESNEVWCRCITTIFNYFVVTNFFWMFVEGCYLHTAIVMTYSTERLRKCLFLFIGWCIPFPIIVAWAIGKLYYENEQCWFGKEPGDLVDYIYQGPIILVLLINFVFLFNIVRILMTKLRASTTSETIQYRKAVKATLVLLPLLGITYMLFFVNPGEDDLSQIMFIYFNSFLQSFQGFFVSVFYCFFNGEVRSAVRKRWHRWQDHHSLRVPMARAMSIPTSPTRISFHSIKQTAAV
T4 sequence (P24387 whole entry): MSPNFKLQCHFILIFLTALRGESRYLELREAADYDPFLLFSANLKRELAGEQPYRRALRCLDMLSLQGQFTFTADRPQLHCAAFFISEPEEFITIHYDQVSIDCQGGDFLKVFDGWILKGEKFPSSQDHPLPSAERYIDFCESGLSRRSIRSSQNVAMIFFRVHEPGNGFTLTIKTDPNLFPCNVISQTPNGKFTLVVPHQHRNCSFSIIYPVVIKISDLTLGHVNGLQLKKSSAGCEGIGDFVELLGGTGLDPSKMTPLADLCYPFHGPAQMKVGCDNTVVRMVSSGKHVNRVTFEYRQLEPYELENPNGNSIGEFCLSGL

[17] = molecular target: T4, Corticotropin-releasing factor receptor 2/Corticotropin-releasing factor-binding protein; experiment: activators of CRF receptor 2 with binding protein – uHTS hits, confirmation (AID 602473); format: functional; settings: read-out: EC50_Mean
[18] = microbe, parasite or virus in culture; format: functional; settings: Mycobacterium tuberculosis
HEK293 [19] = experiment: cells; settings: Homo sapiens; remark: listed apart in the source
Protein RecA = molecular target: T5, Protein RecA (Mycobacterium tuberculosis, UniProt P9WHJ3); experiment: Fluorescence Cell-Free Homogeneous Dose Retest to Identify Inhibitors of RecA-Intein Splicing Activity. [Related pubchem assays (depositor defined):AID2097, AID2223, AID489010, AID492950]; format: functional
T5 sequence (P9WHJ3 whole entry): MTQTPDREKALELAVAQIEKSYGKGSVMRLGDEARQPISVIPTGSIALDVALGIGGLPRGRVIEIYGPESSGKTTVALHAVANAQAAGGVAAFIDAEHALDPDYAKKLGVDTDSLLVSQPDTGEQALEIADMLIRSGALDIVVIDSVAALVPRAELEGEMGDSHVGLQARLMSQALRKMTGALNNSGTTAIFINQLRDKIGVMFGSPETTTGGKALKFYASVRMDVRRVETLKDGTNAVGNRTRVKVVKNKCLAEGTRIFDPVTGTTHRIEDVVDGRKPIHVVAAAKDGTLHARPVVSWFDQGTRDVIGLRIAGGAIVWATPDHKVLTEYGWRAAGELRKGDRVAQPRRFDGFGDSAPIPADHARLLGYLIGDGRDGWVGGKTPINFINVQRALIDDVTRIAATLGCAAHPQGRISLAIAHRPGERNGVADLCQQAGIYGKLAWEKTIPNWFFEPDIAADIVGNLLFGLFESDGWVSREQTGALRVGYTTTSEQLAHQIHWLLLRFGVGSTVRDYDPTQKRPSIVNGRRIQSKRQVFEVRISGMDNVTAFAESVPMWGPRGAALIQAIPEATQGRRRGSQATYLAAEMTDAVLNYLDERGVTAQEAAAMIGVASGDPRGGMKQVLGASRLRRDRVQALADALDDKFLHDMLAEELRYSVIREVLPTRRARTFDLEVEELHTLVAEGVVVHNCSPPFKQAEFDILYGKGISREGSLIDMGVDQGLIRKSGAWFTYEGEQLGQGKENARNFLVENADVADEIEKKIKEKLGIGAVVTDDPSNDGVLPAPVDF

COc1cc(C2CC(=O)N3CN(Cc4ccccc4)CSC3=C2C#N)ccc1OCc1ccccc1 (configuration not stated)
EC50 (cells [1]): 40.3 µM (active) | EC50 [2]: > 79.4 µM (not active) | EC50 [3]: > 79.4 µM (not active) | EC50 (cells [4]): > 350 µM (not active) | EC50 [5]: > 79.4 µM (not active)

N#Cc1cc2c(nc1SCc1ccccc1)CCC2
EC50 [2]: 56.6 µM (not active) | IC50 (Estrogen receptor beta): 0.0254 µM (not active) | EC50 [3]: 41 µM (not active) | EC50 [5]: 45.2 µM (not active)

CC(C)N1CCN(c2ccc(OC[C@H]3CO[C@](Cn4cncn4)(c4ccc(Cl)cc4Cl)O3)cc2)CC1 [TERCONAZOLE]
CC50 (Vero [6]): 22.1 µM (active) | AC50 [7]: 1.41 µM (active)

Nc1ccccc1SC(C[N+](=O)[O-])c1ccccc1 (configuration not stated)
IC50 [8]: 28.2 µM (active)

CCO/C(O)=C1\C(C)=NC(=S)N(C(C)=O)C1c1ccc(OC)c(OC)c1 (configuration not stated)
IC50 (Coagulation factor XII): > 50 µM (inactive)

CCC1=NN(C(=O)Cc2ccc([N+](=O)[O-])cc2)C(O)(C(F)(F)F)C1 (configuration not stated)
IC50 (Coagulation factor XII): > 50 µM (inactive)

O=C(Nc1nnc(S(=O)(=O)N2CCCCCC2)s1)c1cccc(Br)c1
EC50 [9]: > 195 µM (not active) | IC50 [10]: 78.9 µM (inactive)

O=C(N[C@@H]1C[C@H]1c1ccccc1)c1cc(-c2ccco2)nc2ccccc12
IC50 [11]: 46.4 µM (active)

CCOc1ccc(N(CC(=O)Nc2cc(C)ccc2C)S(=O)(=O)c2c(C)nc(O)nc2O)cc1
IC50 (Coagulation factor XII): > 50 µM (inactive)

CC(C)(C)n1ncc2c(=O)n(CC(=O)Nc3ccc(Cl)cc3)cnc21
EC50 [12]: 4.08 µM (active)

CCC(C)NC(=O)CSc1ncnc2sccc12 (configuration not stated)
IC50 (Coagulation factor XII): > 50 µM (inactive)

O=C1CCCCC1Nc1ccc2ccccc2c1 (configuration not stated)
IC50 (Vero [13]): > 12.5 µM (active)

CC(C)(C)c1ccc(CNC(=O)c2cc(-c3ccco3)nc3ccccc23)cc1
IC50 [11]: 39.5 µM (active)

Nc1c(C(=O)Nc2ccc(F)cc2)sc(=S)n1-c1ccccc1F
IC50 [10]: > 80 µM (inactive)

COc1cc(/C=N/n2c(S)nnc2-c2ccccc2)cc(OC)c1O
IC50 [8]: > 100 µM (inactive)

O=C(Oc1ccc2ccccc2c1Br)N1CCCCCC1
IC50 (Vero [13]): 4.26 µM (active) | CC50 (Vero [6]): > 25 µM (active) | AC50 (Cytochrome P450 2C9): 25.1 µM (inconclusive)

O=C(CSc1nnc(CNC(=O)c2cccs2)o1)Nc1cccc(C(F)(F)F)c1
EC50 [12]: 4.46 µM (active)

COC(=O)CN1C(c2ccc(Cl)cc2)=Nc2ccc(Cl)cc2C1c1ccccc1 (configuration not stated)
AC50 [14]: 4.24 µM (active) | EC50 (HEK293 [15]): > 59.6 µM (inactive) | IC50 [16]: > 47.1 µM (inactive) | EC50 [17]: > 53 µM (inactive) | CC50 [18]: > 40 µM (active) | EC50 (HEK293 [19]): > 59.6 µM (inactive) | EC50 (Protein RecA): 55.9 µM (inconclusive)

COc1ccc(C2C=C(C34CC5CC(CC(C5)C3)C4)N=C(S)N2)cc1OC (configuration not stated)
EC50 (HEK293 [15]): > 59.6 µM (inactive) | EC50 (HEK293 [19]): > 59.6 µM (inactive)
